Measured values published in patent US8791272B2, “Pyrazole compounds as CRTH2 antagonists” (Boehringer Ingelheim International GmbH, priority 2011, dated 2014).

target: human CRTH2 receptor (Homo sapiens (Human), UniProt Q9Y5Y4); experiment: CRTH2 receptor radioligand binding assay (SPA, [3H]-PGD2 displacement); details: [3H]-PGD2 1 nM, CHO-K1-hCRTH2 cell membranes, SPA format, 3 h room temperature
Method: The binding of CRTH2 antagonists is determined using membranes prepared from Chinese hamster ovary cells (CHO-K1 cells) transfected with the human CRTH2 receptor (CHO-K1-hCRTH2 cells, Perkin Elmer, Cat No ES-561-C). To produce cell membranes the CHO-K1-hCRTH2 cells are cultured in suspension in CHO SFMII medium supplemented with 400 μg/ml G418. The cells are harvested by centrifugation at 300 g for 10 min at room temperature. The cell pellet is resuspended in Phosphate Buffer Saline (PBS) including a protease inhibitor mix (Complete, Roche) and adjusted to a concentration of 10E7 cells/ml. The CHO-K1-hCRTH2 cells are disrupted by nitrogen […] to obtain the membrane preparation. Cell debris is removed by centrifugation (500 g at 4° C., 30 min) and the supernatant is transferred into fresh tubes followed by a second centrifugation at 40000 g for 1 h at 4° C. to sediment the membranes. The membranes are suspended in SPA incubation buffer (50 mM Tris HCl, 10 mM MgCl2, 150 mM NaCl, 1 mM EDTA, pH 7.4) without bovine serum albumin, homogenized by passing through a single use needle (Terumo, 23G×1″), and stored in aliquots at −80° C.
The CRTH2 receptor binding assay is performed in a scintillation proximity assay (SPA) format with the radioligand [^3H]-PGD2 (Perkin Elmer, NET616000MC). CHO-K1-hCRTH2 cell membranes are again homogenized by passing through a single use needle (Terumo, 23G×1″) and diluted in SPA incubation buffer in suitable concentrations (0.5-10 μg protein/well). The SPA assay is set up in 96 well microtiter plates (Perkin Elmer, CatNo. 6005040) in SPA incubation buffer with a final volume of 200 μl per well and final concentration of 50 mM Tris-HCl, 10 mM MgCl2, 150 mM NaCl, 1 mM EDTA pH 7.4, 0.1% bovine serum albumin). The SPA assay mixture contains 60 μl of the membrane suspension, 80 μl of Wheat Germ Agglutinin coated PVT beads (GE Healthcare, RPNQ-0001, 0.3 mg/well), 40 μl of [3H]-PGD2 diluted in SPA buffer to a final concentration of 1 nM (50 000 dpm) and 20 μl of the test compound (dissolved in dimethylsulfoxid). The SPA assay mixture is incubated for 3 h at room temperature. Bound radioactivity is determined with a scintillation counter (Micro Beta Trilux, Wallac).
The binding of [^3H]-PGD2 to CHO-K1-hCRTH2 cell membranes is determined in the absence (total binding, Bo) and presence (non-specific binding, NSB) of unlabelled PGD2 (1 μM, Cayman Chemical, Cat No 12010) or a reference CRTH2 antagonist (10 μM CAY10471, Cayman Chemical, Cat No 10006735).
Determination of the affinity of a test compound is calculated by subtraction of the non-specific binding (NSB) from the total binding (Bo) or the binding in the presence of the test compound (B) at a given compound concentration. […] The Bo-NSB value is set to 0% inhibition.

Chain of human CRTH2 receptor (Q9Y5Y4 whole entry): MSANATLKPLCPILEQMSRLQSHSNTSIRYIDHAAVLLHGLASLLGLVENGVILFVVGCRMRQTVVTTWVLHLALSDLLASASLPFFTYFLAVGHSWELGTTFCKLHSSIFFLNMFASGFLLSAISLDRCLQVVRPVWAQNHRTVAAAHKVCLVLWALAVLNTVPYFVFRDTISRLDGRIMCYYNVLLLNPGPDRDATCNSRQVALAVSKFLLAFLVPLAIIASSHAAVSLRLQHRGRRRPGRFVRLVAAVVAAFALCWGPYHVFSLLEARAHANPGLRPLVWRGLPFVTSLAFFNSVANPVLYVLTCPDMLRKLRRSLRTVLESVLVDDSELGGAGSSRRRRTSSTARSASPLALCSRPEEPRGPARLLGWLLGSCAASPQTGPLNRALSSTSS

Ki	SMILES
0.7 nM	CCCc1nn(Cc2ccc(NC(=O)c3ccc(C(F)(F)F)cc3C)cc2)c(C(C)C)c1CC(=O)O [Example 2.36]
4.8 nM	CCc1nn(Cc2ccc(OCc3ccc(Cl)c(C(F)(F)F)c3)cc2)c(CC)c1CC(=O)O [Example 13.7]
56.3 nM	Cc1nn(Cc2ccc(/C=C/c3ccc(C(F)(F)F)cc3)cc2)c(C)c1CC(=O)O [Example 12.2, (3,5-Dimethyl-1-{4-[(E)-2-(4-trifluoromethyl-phenyl)-vinyl]-benzyl}-1H-pyrazol-4-yl)-acetic acid]
0.4 nM	CCCc1nn(Cc2ccc(NC(=O)c3ccc(Cl)cc3)cc2)c(C(C)C)c1CC(=O)O [Example 2.37]
1.6 nM	CCCc1nn(Cc2ccc(NC(=O)c3ccccc3)cc2)c(C(C)C)c1CC(=O)O [Example 2.39]
0.2 nM	CCCc1nn(Cc2ccc(NC(=O)c3ccc(Cl)c(Cl)c3)cc2)c(C(C)C)c1CC(=O)O [Example 2.40]
0.1 nM	CCCc1nn(Cc2ccc(NC(=O)c3ccc4ccccc4c3)cc2)c(C(C)C)c1CC(=O)O [Example 2.42]
1 nM	CCCc1nn(Cc2ccc(NC(=O)c3ccc(Cl)cc3C)cc2)c(C(C)C)c1CC(=O)O [Example 2.38]
0.2 nM	CCCc1nn(Cc2ccc(NC(=O)c3ccc(C(F)(F)F)cc3)cc2)c(C(C)C)c1CC(=O)O [Example 2.41]
